# Results as given in patent publication US12533350B2, “Use of melanocortin-1 receptor agonist” (TANABE PHARMA CORPORATION, priority 2022, dated 2026).
# Assays:
# [1] = test system: pre-established BLM-induced skin fibrosis
# [2] = target: MC1R (Homo sapiens, UniProt Q01726); details: described in WO 2020/138481; co-crystal with phosphoric acid; cited from earlier work
# [3] = test system: dermal fibroblasts from healthy donors; experiment: TGF-β-induced human fibroblast activation, healthy donors; type: cell-based; details: TGF-β 10 ng/mL, 24 hours
# Text: (§1) Full-thickness skin biopsies were obtained from clinically involved skin of patients affected by dcSSc, who were recruited from the Systemic sclerosis clinic within the Leeds Institute of Rheumatic and Musculoskeletal Medicine (UK). Control skin samples were from healthy donors. All patients with dcSSc and healthy donors provided written informed consent through the stratification for risk of progression in systemic sclerosis (STRIKE SSC), which had been approved by the North-East Research Ethic committee. Patients with SSc fulfilled the 2013 ACR/EULAR classification criteria for SSc and were classified as having dcSSc according to the LeRoy and Medsger criteria.
# Dermal fibroblasts were isolated from the skin biopsy samples of healthy donors and SSc patients. The skin biopsy samples were minced with a scalpel, placed in plastic culture dishes and covered with Dulbecco's Modified Eagle Medium (DMEM) with 4.5 g/L glucose (Thermo Fisher Scientific) supplemented with 20% fetal calf serum (FCS, Thermo Fisher Scientific), 1% penicillin and streptomycin (Merck), and 1 μg/ml of amphotericin (Thermo Fisher Scientific) and cultured at 37° C. in a humidified atmosphere of 5% CO2. Additional growth medium was added after 3 days with no amphotericin. After 7 days, culture medium was replaced with medium containing 10% FCS and subsequently replenished every 2 to 3 days. When a visible outgrowth of cells was obtained, the fibroblasts were passaged. Briefly, cells were incubated with PBS containing 0.1% EDTA for 5 min, and then detached with trypsin-EDTA solution (Merck), and cultured until 70-80% confluent in DMEM (1 g/L glucose) supplemented with 10% FCS and 1% penicillin and streptomycin. After a subsequent passage, primary cells were retrovirally immortalized using human telomerase reverse transcriptase. […]
# (§2) Total RNA was extracted using the Zymo quick RNA mini prep kit according to manufacturer's instructions (Zymo Research Corporation). […] Quantitative RT-PCR was performed in triplicates using SYBR Green RT-PCR Mastermix Kit (Thermo Fisher Scientific) and the ABI PRISM 7500 Fast Real Time PCR System (Applied Biosystems). […]
# FIGS. 5(A)-5(B) show the effect of Compound A on human fibroblast activation. Dermal fibroblasts from a healthy individual or an SSc patient were grown to confluence, and placed under starvation for 24 hours in a medium supplemented with 1% fetal bovine serum (A: mRNA expression of ACTA2 and COL1A1 in dermal fibroblasts of healthy individuals was measured by real-time PCR, and normalized for the GAPDH expression level. B: mRNA expression of ACTA2 and COL1A1 in dermal fibroblasts of SSc patients was measured for by real-time PCR, and normalized for the GAPDH expression level). Each bar represents the mean±SEM of the measured values from three wells. […]
# [4] = test system: dermal fibroblasts from SSc patients; experiment: TGF-β-induced human fibroblast activation, SSc patients; type: cell-based; details: concentration of 1000 nmol/L; TGF-β 10 ng/mL, 24 hours
# Text: as §1
# Dermal fibroblasts were isolated from the skin biopsy samples of healthy donors and SSc patients. […]
# as §2
# FIGS. 5(A)-5(B) show the effect of Compound A on human fibroblast activation. […] Each bar represents the mean±SEM of the measured values from three wells. […]
# [5] = test system: serum proteins in BLM-induced SSc model; details: Compound A 10 mg/kg
# Method: Serum samples were obtained from mice of the BLM-induced SSc model (therapeutic evaluation). Samples from the saline_vehicle (control group without disease), BLM_vehicle (control group with disease), BLM_Compound A (10 mg/kg), and BLM_imatinib (150 mg/kg) groups were used for analysis. Using a Luminex assay (R&D systems), 110 proteins were investigated (supplemental Table s1). Proteins satisfying any of the following criteria were analyzed: i) all samples were adequately measured within the quantitative range; ii) more than half of the samples in one or more groups were quantified, although some samples were out of the quantitative range.
# Using serum samples of mice to which 10 mg/kg of Compound A and 150 mg/kg of imatinib were administered, serum protein profiling was carried out in a BLM-induced SSc model (treatment model). Using a Luminex assay, 110 kinds of proteins were investigated.
# [6] = Compound A at 3 and 10 mg/kg orally once daily day 22-42, samples day 43
# MC1R, sequence (Q01726 whole entry, species assumed): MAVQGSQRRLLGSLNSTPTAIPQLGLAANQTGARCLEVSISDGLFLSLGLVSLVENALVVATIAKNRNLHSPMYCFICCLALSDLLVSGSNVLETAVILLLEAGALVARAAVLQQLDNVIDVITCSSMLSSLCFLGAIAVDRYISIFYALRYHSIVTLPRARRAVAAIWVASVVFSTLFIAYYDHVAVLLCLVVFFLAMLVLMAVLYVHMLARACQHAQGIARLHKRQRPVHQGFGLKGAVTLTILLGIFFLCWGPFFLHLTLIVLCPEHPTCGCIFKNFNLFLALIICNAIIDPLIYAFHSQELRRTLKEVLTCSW
smiles,measurement,setting,value
"COC[C@H]1CN(C(=O)[C@]2(F)CN(C3CCCC3)C[C@H]2c2ccc(OC)cc2)C[C@@H]1c1ccc(C(F)(F)F)cc1N1CCC(C(=O)O)CC1 [Compound A, 1-{2-[(3S,4R)-1-{[(3R,4R)-1-cyclopentyl-3-fluoro-4-(4-methoxyphenyl)pyrrolidin-3-yl]carbonyl}-4-(methoxymethyl)pyrrolidin-3-yl]-5-(trifluoromethyl)phenyl}piperidine-4-carboxylic acid]",BLM-induced increase of skin thickness,[1]; [6],significantly inhibited
same,BLM-induced increase of αSMA-positive myofibroblasts in the dermis,[1]; [6],significantly inhibited
same,BLM-induced loss of dermal white adipose tissue (Masson's trichrome staining),"[1]; Compound A orally once daily day 22-42, samples day 43",inhibited
same,progression of fibrosis after 3 weeks (versus group 2: BLM 3 weeks then saline 3 weeks),[1]; Compound A orally once daily during last 3 weeks of 6-week BLM,almost completely inhibited
same,"MCR-activating action, especially MC1R-activating action",[2],excellent MCR-activating action
same,TGF-β-induced αSMA (ACTA2) mRNA elevation,"[3]; concentration-dependent, normalized to GAPDH",inhibited
same,TGF-β-induced COL1A1 mRNA expression,[3]; normalized to GAPDH,no effect
same,TGF-β-induced increase in αSMA mRNA expression,[3]; concentration of 1000 nmol/L,suppressed
same,TGF-β-induced increase in αSMA mRNA expression,[4],suppressed
same,BLM-induced elevation of serum GDF-15,[5],significantly suppressed
same,BLM-induced elevation of serum MMP-2,[5],significantly suppressed
same,BLM-induced elevation of serum MMP-3,[5],significantly suppressed
same,BLM-induced elevation of serum P-selectin,[5],significantly suppressed
same,BLM-induced elevation of serum S100A9,[5],significantly suppressed
same,BLM-induced elevation of serum TIMP-1,[5],significantly suppressed
same,BLM-induced elevation of serum TNFRI,[5],significantly suppressed
same,BLM-induced elevation of serum TNFRII,[5],significantly suppressed
same,BLM-induced elevation of serum adiponectin,[5],significantly suppressed
same,BLM-induced elevation of serum cystatin C,[5],significantly suppressed
same,BLM-induced elevation of serum osteoprotegerin,[5],significantly suppressed
